Our source for the IC50 values is ChEMBL document CHEMBL1134424, “Synthesis and evaluation of caffeic acid amides as antioxidants” (Bioorg Med Chem Lett, 2001).

This assay is described as follows: Evaluated for the antioxidant property by measuring the inhibition of microsomal lipid peroxidation. Format: functional.

The term IC50 denotes the concentration needed to halve the response being measured. A lower IC50 goes with inhibition by little substance.

Compound `NC(=O)/C=C/c1ccc(O)c(O)c1` returned an IC50 of 2200 nM.

Consider `O=C(/C=C/c1ccc(O)c(O)c1)Nc1ccccc1`, for which the IC50 came out at 380 nM. This IC50 is about 5.8-fold lower than that of the compound before.

On to `CCNC(=O)/C=C/c1ccc(O)c(O)c1`, for which 2700 nM corresponded to half-maximal inhibition (IC50). This IC50 lies about 7.1-fold higher than the previous one.

In turn, `CC(C)=CCNC(=O)/C=C/c1ccc(O)cc1` came in with an IC50 of 29100 nM.

`O=C(/C=C/c1ccc(O)c(O)c1)Nc1ccccc1O` returned an IC50 of 290 nM.

Regarding `COC(=O)C(Cc1ccc(O)cc1)NC(=O)/C=C/c1ccc(O)c(O)c1` (stereo not given), inhibition was half-maximal at 3200 nM (IC50).

Compound `CC(C)NC(=O)/C=C/c1ccc(O)c(O)c1` gave an IC50 of 3900 nM.

With `O=C(/C=C/c1ccc(O)c(O)c1)NCc1ccccc1`, it took 1020 nM to reach half-maximal inhibition (IC50).

The compound `O=C(/C=C/c1ccc(O)c(O)c1)N1CCCCC1` came in with an IC50 of 3600 nM.

`CC(C)CCNC(=O)/C=C/c1ccc(O)c(O)c1`: half-maximal inhibition (IC50) was put at 1400 nM.

`O=C(/C=C/c1ccc(O)c(O)c1)NCCc1ccc(O)c(O)c1`: half-maximal inhibition (IC50) required 590 nM.

Regarding `O=C(/C=C/c1ccc(O)c(O)c1)Nc1cccc(O)c1`, the IC50 was 370 nM.

As to `O=C(/C=C/c1ccc(O)c(O)c1)N1CCCC1`, the IC50 came to 2400 nM.

Turning to `CCN(CC)C(=O)/C=C/c1ccc(O)c(O)c1`, the midpoint of inhibition, the IC50, lay at 4100 nM.

For the compound `CC(C)=CCNC(=O)/C=C/c1ccc(O)c(O)c1`, it took 3400 nM to reach half-maximal inhibition (IC50).

With `C=CCNC(=O)/C=C/c1ccc(O)c(O)c1`, the IC50 was determined as 2200 nM.

In turn, `O=C(/C=C/c1ccc(O)c(O)c1)Nc1ccc(O)cc1` had an IC50 of 630 nM. Compared with the last compound, the IC50 is about 3.5-fold lower.

In the case of `CC(C)CNC(=O)/C=C/c1ccc(O)c(O)c1`, half-maximal inhibition (IC50) was put at 2200 nM.

`O=C(/C=C/c1ccc(O)c(O)c1)N1CCOCC1` showed a 50% inhibitory concentration (IC50) of 6100 nM.

Regarding `CNC(=O)/C=C/c1ccc(O)c(O)c1`, the IC50 is 6000 nM.

Regarding `O=C(/C=C/c1ccc(O)c(O)c1)NCCc1ccccc1` [CAFFEIC ACID PHENETHYL AMIDE], the IC50 was found to be 850 nM. This IC50 lies about 7.1-fold lower than the previous one.

In the case of `O=C(O)/C=C/c1ccc(O)c(O)c1` [CAFFEIC ACID], it took 3300 nM to reach half-maximal inhibition (IC50).

The compound `O=C(O)/C=C/c1ccc(O)cc1` [COUMARIC ACID] gave an IC50 of 100000 nM.

Regarding `O=c1c(O)c(-c2ccc(O)c(O)c2)oc2cc(O)cc(O)c12` [QUERCETIN], the IC50 came to 950 nM. Compared with the last compound, the IC50 is about 110-fold lower.

For `Cc1c(C)c2c(c(C)c1O)CCC(C)(C(=O)O)O2` (stereo not given) [TROLOX], the IC50 turned out to be 2800 nM.
